Blank lines part the entries; values can stand above or below the compound they belong to.
Assays:
[1] = (§1) Inhibitory activity against Melanin-concentrating hormone receptor 1; set-up: species or system Homo sapiens
[2] = target: T1, Melanin-concentrating hormone receptor 1 (Homo sapiens, UniProt Q99705); test: Inhibitory activity against Melanin-concentrating hormone receptor 1 at 1 uM
[3] = target: T2, 5-hydroxytryptamine receptor 2B (Homo sapiens, UniProt P41595); test: Inhibitory activity against human 5-HT2B receptor
[4] = target: T3, 5-hydroxytryptamine receptor 2C (Homo sapiens) (UniProt P28335); test: Inhibitory activity against human 5-HT2C receptor at 1 uM concentration
T3 sequence (whole entry): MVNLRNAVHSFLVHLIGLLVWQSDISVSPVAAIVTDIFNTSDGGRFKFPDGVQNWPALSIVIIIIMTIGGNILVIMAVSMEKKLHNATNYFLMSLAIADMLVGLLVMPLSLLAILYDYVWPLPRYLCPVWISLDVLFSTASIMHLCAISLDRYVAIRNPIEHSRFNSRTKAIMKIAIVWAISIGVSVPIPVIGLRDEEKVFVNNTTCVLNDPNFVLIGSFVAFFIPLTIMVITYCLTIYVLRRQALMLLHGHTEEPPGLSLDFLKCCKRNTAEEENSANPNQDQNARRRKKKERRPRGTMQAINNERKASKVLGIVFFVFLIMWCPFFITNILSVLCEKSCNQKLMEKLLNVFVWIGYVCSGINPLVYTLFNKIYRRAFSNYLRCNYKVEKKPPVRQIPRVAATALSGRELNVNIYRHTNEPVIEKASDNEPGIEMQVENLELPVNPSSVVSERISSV

[5] = target: T4, 5-hydroxytryptamine receptor 2A (Homo sapiens, UniProt P28223); test: Inhibitory activity against human 5-HT2A receptor at 1 uM concentration
[6] = target: T5, Alpha-1A adrenergic receptor (Homo sapiens) (UniProt P35348); test: Inhibitory activity against human adrenergic alpha-1A receptor at 10 uM concentration
T5 sequence (whole entry): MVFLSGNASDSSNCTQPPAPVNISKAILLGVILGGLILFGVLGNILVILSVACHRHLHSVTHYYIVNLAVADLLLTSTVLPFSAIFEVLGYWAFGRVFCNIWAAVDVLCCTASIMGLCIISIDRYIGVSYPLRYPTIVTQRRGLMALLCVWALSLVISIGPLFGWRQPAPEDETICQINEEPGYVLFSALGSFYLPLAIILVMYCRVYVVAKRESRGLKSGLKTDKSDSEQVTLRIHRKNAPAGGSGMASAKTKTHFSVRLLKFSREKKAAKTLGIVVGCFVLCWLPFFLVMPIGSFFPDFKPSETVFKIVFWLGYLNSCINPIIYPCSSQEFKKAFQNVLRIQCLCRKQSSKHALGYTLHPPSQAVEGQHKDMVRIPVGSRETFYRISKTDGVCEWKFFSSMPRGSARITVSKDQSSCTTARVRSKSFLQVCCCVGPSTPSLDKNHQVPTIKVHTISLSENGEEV

[7] = target: D(2) dopamine receptor (Homo sapiens) (UniProt P14416); test: Inhibitory activity against human D2 receptor at 10 uM concentration
[8] = species: Homo sapiens; test: Selectivity ratio for MCH-1R versus 5-HT2B receptor
[9] = target: T1, Melanin-concentrating hormone receptor 1; test: Tested for MCH-1 induced [Ca2+] release from CHO cells transfected with human MCH-1R; format: cell-based
[10] = target: T1, Melanin-concentrating hormone receptor 1; test: as §1; details: concentration not given here
[11] = target: T4, 5-hydroxytryptamine receptor 2A; test: Inhibitory activity against human 5-HT2A receptor
[12] = target: T6, 5-hydroxytryptamine receptor 2C (Homo sapiens, UniProt P28335); test: Inhibitory activity against human 5-HT2C receptor
T6 sequence (P28335 whole entry): T3 sequence (whole entry)

[13] = target: T5, Alpha-1A adrenergic receptor (Homo sapiens); test: Inhibitory activity against human adrenergic alpha-1A receptor at 10 uM
[14] = target: D(2) dopamine receptor (Homo sapiens) (UniProt P14416); test: Inhibitory activity against human D2 receptor at 10 uM
[15] = target: T5, Alpha-1A adrenergic receptor (Homo sapiens); test: Inhibitory activity against human adrenergic alpha-1A receptor at 1 uM concentration
[16] = target: D(2) dopamine receptor (Homo sapiens) (UniProt P14416); test: Inhibitory activity against human D2 receptor at 1 uM concentration
[17] = target: T2, 5-hydroxytryptamine receptor 2B; test: Inhibitory activity against human 5-HT2B receptor at 1 uM concentration

Chain of D(2) dopamine receptor (Homo sapiens) (P14416 whole entry): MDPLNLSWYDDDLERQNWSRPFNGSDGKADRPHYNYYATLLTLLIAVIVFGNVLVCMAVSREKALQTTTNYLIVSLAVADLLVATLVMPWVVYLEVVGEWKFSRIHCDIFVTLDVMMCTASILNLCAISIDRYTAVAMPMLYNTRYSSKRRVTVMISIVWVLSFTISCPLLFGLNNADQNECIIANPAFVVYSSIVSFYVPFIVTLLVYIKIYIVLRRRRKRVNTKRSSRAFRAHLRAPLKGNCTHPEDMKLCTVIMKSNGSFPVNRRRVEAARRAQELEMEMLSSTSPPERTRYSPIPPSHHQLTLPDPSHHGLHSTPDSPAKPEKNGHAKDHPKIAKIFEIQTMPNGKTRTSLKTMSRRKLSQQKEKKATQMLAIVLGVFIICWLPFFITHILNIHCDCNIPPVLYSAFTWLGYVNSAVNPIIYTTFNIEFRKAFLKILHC
T1 sequence (Q99705 whole entry): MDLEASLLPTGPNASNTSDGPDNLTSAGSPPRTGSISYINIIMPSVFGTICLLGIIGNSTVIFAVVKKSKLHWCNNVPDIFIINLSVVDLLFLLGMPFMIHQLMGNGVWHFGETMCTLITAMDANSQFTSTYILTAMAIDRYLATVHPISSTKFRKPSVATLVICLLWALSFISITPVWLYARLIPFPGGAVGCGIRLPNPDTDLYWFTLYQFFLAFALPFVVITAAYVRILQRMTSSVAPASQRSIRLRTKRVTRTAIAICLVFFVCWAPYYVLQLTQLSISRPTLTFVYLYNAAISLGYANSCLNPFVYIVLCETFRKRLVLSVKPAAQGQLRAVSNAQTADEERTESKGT
T2 sequence (P41595 whole entry): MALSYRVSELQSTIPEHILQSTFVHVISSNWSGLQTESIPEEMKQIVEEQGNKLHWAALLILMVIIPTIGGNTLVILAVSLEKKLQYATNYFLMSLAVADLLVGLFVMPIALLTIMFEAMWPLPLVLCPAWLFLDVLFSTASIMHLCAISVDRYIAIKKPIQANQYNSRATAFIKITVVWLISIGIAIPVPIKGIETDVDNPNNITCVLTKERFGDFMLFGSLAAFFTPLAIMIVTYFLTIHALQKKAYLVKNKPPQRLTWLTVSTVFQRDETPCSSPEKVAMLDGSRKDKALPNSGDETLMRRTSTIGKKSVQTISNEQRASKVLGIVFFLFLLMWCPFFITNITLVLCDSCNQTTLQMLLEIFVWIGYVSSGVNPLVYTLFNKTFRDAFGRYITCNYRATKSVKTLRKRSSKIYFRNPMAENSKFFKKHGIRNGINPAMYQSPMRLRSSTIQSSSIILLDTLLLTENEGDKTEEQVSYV
T4 sequence (P28223 whole entry): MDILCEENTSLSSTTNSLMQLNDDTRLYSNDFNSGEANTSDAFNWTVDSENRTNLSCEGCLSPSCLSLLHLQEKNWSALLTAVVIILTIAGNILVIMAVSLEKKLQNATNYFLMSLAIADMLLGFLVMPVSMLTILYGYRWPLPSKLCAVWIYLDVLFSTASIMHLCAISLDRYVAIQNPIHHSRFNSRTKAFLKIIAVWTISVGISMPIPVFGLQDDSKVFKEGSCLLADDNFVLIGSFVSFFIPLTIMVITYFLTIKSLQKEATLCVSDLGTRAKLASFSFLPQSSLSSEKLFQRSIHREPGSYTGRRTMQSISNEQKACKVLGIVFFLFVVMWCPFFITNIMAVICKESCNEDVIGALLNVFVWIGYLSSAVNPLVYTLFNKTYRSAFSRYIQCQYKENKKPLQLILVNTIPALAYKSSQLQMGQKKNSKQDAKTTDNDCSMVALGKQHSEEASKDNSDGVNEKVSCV

IC50 [1]: 0.3 µM
Compound: Cc1cc(N2CCN(C)CC2)nc2ccc(NC(=O)CCc3ccc(Cl)cc3)cc12

inhibition [2]: 40%
Compound: Cc1cc(N(C)Cc2ccccc2)nc2ccc(NC(=O)COc3ccc(C(F)(F)F)cc3)cc12

IC50 [1]: 1.05 µM
Compound: Cc1ccccc1OCC(=O)Nc1ccc2nc(N3CCN(C)CC3)cc(C)c2c1

IC50 [1]: 0.08 µM
Compound: Cc1ccc(OCC(=O)Nc2ccc3nc(N4CCN(C)CC4)cc(C)c3c2)cc1

IC50 [1]: 0.014 µM
IC50 [3]: 0.442 µM
inhibition [4]: 39%
inhibition [5]: 27%
inhibition [6]: 85%
inhibition [7]: 41%
Ratio [8]: 32
IC50 [9]: 0.063 µM
Compound: Cc1cc(N2CCN(C)CC2)nc2ccc(NC(=O)COc3ccc(C(F)(F)F)cc3)cc12

IC50 [1]: 0.226 µM
Compound: Cc1cc(N2CCCCC2)nc2ccc(NC(=O)COc3ccc(C(F)(F)F)cc3)cc12

inhibition [2]: 19%
Compound: Cc1cc(N2CCN(C)CC2)nc2ccc(NC(=O)COCc3ccc(Cl)cc3)cc12

IC50 [1]: 0.174 µM
Compound: Cc1cc(N(C)C)nc2ccc(NC(=O)COc3ccc(C(F)(F)F)cc3)cc12

inhibition [2]: 38%
Compound: Cc1cc(N2CCN(C)CC2)nc2ccc(NC(=O)CSCc3ccc(Cl)cc3)cc12

IC50 [1]: 0.022 µM
Compound: Cc1cc(N(C)CCN(C)C)nc2ccc(NC(=O)COc3ccc(C(F)(F)F)cc3)cc12

inhibition [10]: 19%
Compound: Cc1cc(N2CCN(C)CC2)nc2ccc(NC(=O)COc3cccc(Cl)c3)cc12

IC50 [1]: 1.68 µM
Compound: Cc1cc(N2CCN(C)CC2)nc2ccc(NC(=O)COc3ccc(F)cc3)cc12

IC50 [1]: 0.37 µM
Compound: Cc1cc(N2CCN(C)CC2)nc2ccc(NC(=O)COc3ccc(C#N)cc3)cc12

IC50 [1]: 0.055 µM
IC50 [11]: 2.18 µM
IC50 [3]: 0.349 µM
IC50 [12]: 0.97 µM
inhibition [13]: 84%
inhibition [14]: 35%
Compound: Cc1cc(N2CCN(C)CC2)nc2ccc(NC(=O)COc3ccc(Cl)cc3)cc12

IC50 [1]: 0.038 µM
Compound: Cc1cc(NC2CCCC2)nc2ccc(NC(=O)COc3ccc(C(F)(F)F)cc3)cc12

IC50 [1]: 0.036 µM
Compound: Cc1cc(N2CCN(C)CC2)nc2ccc(NC(=O)COc3ccc(OC(F)(F)F)cc3)cc12

IC50 [1]: 0.015 µM
inhibition [4]: 7%
inhibition [5]: 11%
inhibition [15]: 10%
inhibition [16]: 7%
Ratio [8]: > 200
IC50 [9]: 0.01 µM
Compound: Cc1cc(N2CCCC2)nc2ccc(NC(=O)COc3ccc(C(F)(F)F)cc3)cc12

IC50 [1]: 0.47 µM
Compound: Cc1cc(N2CCN(C)CC2)nc2ccc(NC(=O)COc3ccccc3Cl)cc12

IC50 [1]: 0.091 µM
inhibition [17]: 19%
inhibition [4]: 27%
inhibition [5]: 27%
inhibition [15]: 5%
inhibition [16]: 43%
Ratio [8]: > 11
IC50 [9]: 0.124 µM
Compound: Cc1cc(N2CCOCC2)nc2ccc(NC(=O)COc3ccc(C(F)(F)F)cc3)cc12

inhibition [2]: 2%
Compound: Cc1cc(N2CCN(C)CC2)nc2ccc(NC(=O)COc3ccccc3)cc12

IC50 [1]: 0.152 µM
Compound: COc1ccc(OCC(=O)Nc2ccc3nc(N4CCN(C)CC4)cc(C)c3c2)cc1

IC50 [1]: 0.011 µM
IC50 [3]: 0.4 µM
inhibition [4]: 18%
inhibition [5]: 18%
inhibition [15]: 24%
inhibition [16]: 2%
Ratio [8]: 36
Compound: Cc1cc(NC(C)C)nc2ccc(NC(=O)COc3ccc(C(F)(F)F)cc3)cc12

inhibition [2]: 9%
Compound: COc1cccc(OCC(=O)Nc2ccc3nc(N4CCN(C)CC4)cc(C)c3c2)c1

inhibition [10]: 0%
Compound: COc1ccccc1OCC(=O)Nc1ccc2nc(N3CCN(C)CC3)cc(C)c2c1

Source: ChEMBL document CHEMBL1137142, “Structure-activity relationships of a novel series of melanin-concentrating hormone (MCH) receptor antagonists” (Bioorg Med Chem Lett, 2004)
